Measurements as given in US9409905B2, “Antibacterial compounds and methods for use” (PTC THERAPEUTICS, INC., priority 2011, dated 2016).

Columns and labels:
[1] = tested on: Escherichia coli (E. coli) BAS849; test: Antibacterial activity, microbroth dilution MIC (Table 1); assay type: cell-based; conditions: microbroth dilution, super sensitive Gram-negative E. coli BAS849, read-out: MIC, BAS849
How it was run: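 Broth microdilution against S. aureus 29213, E. coli 25922 and hypersensitive E. coli BAS849. MIC in μg/mL is the lowest drug concentration preventing macroscopically visible growth under test conditions.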

[2] = tested on: Staphylococcus aureus (S. aureus) 29213; test: as above; assay type: cell-based; conditions: microbroth dilution, Gram-positive S. aureus 29213, read-out: MIC, 29213
How it was run: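 Each strain is exposed to test compound in a microbroth dilution series; visible growth is scored macroscopically, and the lowest growth-free concentration is recorded as MIC in μg/mL.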

E. coli 25922 = test: as above; assay type: cell-based, Escherichia coli; conditions: Escherichia coli; microbroth dilution; control Gram-negative E. coli 25922 strain; read-out: MIC, 25922
How it was run: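 In a microbroth dilution test, the minimum inhibitory concentration was defined as the lowest compound level preventing growth seen by eye, and was given in μg/mL.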

E. coli LZ3111 = test: Antibacterial activity, MIC, quinolone resistant strain (Table 2); assay type: cell-based; conditions: Escherichia coli, LZ3111, read-out: MIC LZ3111
How it was run: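 Microbroth dilution method; MIC (μg/mL) is the lowest drug concentration preventing macroscopically visible growth under test conditions.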

[3] = tested on: Acinetobacter baumannii (A. baumannii) BAA747; test: Antibacterial activity, MIC (Table 4); assay type: cell-based; conditions: A. baumannii BAA747, read-out: MIC, BAA747
How it was run: (§1)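 MIC (μg/mL) by microbroth dilution, taken as the lowest drug concentration preventing macroscopically visible growth. MXX strains are multi-drug resistant clinical isolates.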

[4] = tested on: Klebsiella pneumoniae (K. pneumoniae) 35657; test: Antibacterial activity, MIC (Table 4); assay type: cell-based; conditions: K. pneumoniae 35657, read-out: MIC, 35657
How it was run: as §1

A. baumannii MXX2240 = test: Antibacterial activity, MIC, resistant strain (Table 4); assay type: cell-based; conditions: Acinetobacter baumannii, MXX2240; resistant A. baumannii MMX2240, multi-drug resistant clinical isolate; read-out: MIC, MMX2240
How it was run: as §1

K. pneumoniae MXX1232 = test: as above; assay type: cell-based; conditions: Klebsiella pneumoniae, MXX1232; resistant K. pneumoniae MMX1232, multi-drug resistant clinical isolate; read-out: MIC, MMX1232
How it was run: as §1

[5] = tested on: Pseudomonas aeruginosa (P. aeruginosa) 27853; test: Antibacterial activity, MIC (Table 5); assay type: cell-based; conditions: P. aeruginosa 27853, read-out: MIC, 27853
How it was run: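 Activity was measured by microbroth dilution. The MIC, in μg/mL, is the lowest drug concentration that prevents macroscopically visible growth under the test conditions.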

Measured: MIC

CCc1c(-c2cc3c(N4CCCC4)nc(C)cn3n2)[nH]c(=O)c(C(=O)O)c1O [Cpd 402, 5-ethyl-4-hydroxy-6-(6-methyl-4-(pyrrolidin-1-yl)pyrazolo[1,5-a]pyrazin-2-yl)-2-oxo-1,2-dihydropyridine-3-carboxylic acid]
3.5 to 12.5 µg/mL: [2]
12.5 to 150 µg/mL: all other assays above

CCc1c(-c2cccc3c2ccn3C)[nH]c(=O)c(C(=O)O)c1O [Cpd 403, 5-ethyl-4-hydroxy-6-(1-methyl-1H-indol-4-yl)-2-oxo-1,2-dihydropyridine-3-carboxylic acid]
3.5 to 12.5 µg/mL: [1]
12.5 to 150 µg/mL: all other assays above

Cc1c(-c2cccc3c2ccn3C)[nH]c(=O)c(C(=O)O)c1O [Cpd 404, 4-hydroxy-5-methyl-6-(1-methyl-1H-indol-4-yl)-2-oxo-1,2-dihydropyridine-3-carboxylic acid]
3.5 to 12.5 µg/mL: [1]
12.5 to 150 µg/mL: all other assays above

CCc1c(-c2cc3ccc(OC)cc3n2C)[nH]c(=O)c(C(=O)O)c1O [Cpd 405, 5-ethyl-4-hydroxy-6-(6-methoxy-1-methyl-1H-indol-2-yl)-2-oxo-1,2-dihydropyridine-3-carboxylic acid]
3.5 to 12.5 µg/mL: [1] | [2]
12.5 to 150 µg/mL: all other assays above

CCc1c(-c2cc3cc(F)ccc3n2C)[nH]c(=O)c(C(=O)O)c1O [Cpd 406, 5-ethyl-6-(5-fluoro-1-methyl-1H-indol-2-yl)-4-hydroxy-2-oxo-1,2-dihydropyridine-3-carboxylic acid]
1 to 3.5 µg/mL: [1]
3.5 to 12.5 µg/mL: [2]
12.5 to 150 µg/mL: all other assays above

CCc1ccc2c(c1)cc(-c1[nH]c(=O)c(C(=O)O)c(O)c1CC)n2C [Cpd 407, 5-ethyl-6-(5-ethyl-1-methyl-1H-indol-2-yl)-4-hydroxy-2-oxo-1,2-dihydropyridine-3-carboxylic acid]
1 to 3.5 µg/mL: [1] | [2]
12.5 to 150 µg/mL: all other assays above

CCc1ccc2cc(-c3[nH]c(=O)c(C(=O)O)c(O)c3CC)n(C)c2c1 [Cpd 408, 5-ethyl-6-(6-ethyl-1-methyl-1H-indol-2-yl)-4-hydroxy-2-oxo-1,2-dihydropyridine-3-carboxylic acid]
1 to 3.5 µg/mL: [1] | [2]
12.5 to 150 µg/mL: all other assays above

CCCc1ccc2c(c1)cc(-c1[nH]c(=O)c(C(=O)O)c(O)c1CC)n2C [Cpd 409, 5-ethyl-4-hydroxy-6-(1-methyl-5-propyl-1H-indol-2-yl)-2-oxo-1,2-dihydropyridine-3-carboxylic acid]
1 to 3.5 µg/mL: [1]
3.5 to 12.5 µg/mL: [2]
12.5 to 150 µg/mL: all other assays above

CCCc1ccc2cc(-c3[nH]c(=O)c(C(=O)O)c(O)c3CC)n(C)c2c1 [Cpd 410, 5-ethyl-4-hydroxy-6-(1-methyl-6-propyl-1H-indol-2-yl)-2-oxo-1,2-dihydropyridine-3-carboxylic acid]
1 to 3.5 µg/mL: [1]
3.5 to 12.5 µg/mL: [2]
12.5 to 150 µg/mL: all other assays above

CCc1c(-c2cc3cc(F)c(C)cc3n2C)[nH]c(=O)c(C(=O)O)c1O [Cpd 411, 5-ethyl-6-(5-fluoro-1,6-dimethyl-1H-indol-2-yl)-4-hydroxy-2-oxo-1,2-dihydropyridine-3-carboxylic acid]
1 to 3.5 µg/mL: [1]
3.5 to 12.5 µg/mL: [2]
12.5 to 150 µg/mL: all other assays above
